{
  "source": "paper PMC2570486",
  "about": "“The Recently Identified P2Y-Like Receptor GPR17 Is a Sensor of Brain Damage and a New Target for Brain Repair” (PLoS ONE, 2008)",
  "key": {"mGPR17": {"target": "T1, mGPR17 (Mus musculus, UniProt Q6NS65)", "T1 construct": "contains a 1020 base pairs open reading frame (ORF) that encodes for a putative 339 amino acid protein; expressed in transfected cells; host or cells: 1321N1 human astrocytoma cells (transient, calcium phosphate); membranes", "T1 sequence (Q6NS65 whole entry)": "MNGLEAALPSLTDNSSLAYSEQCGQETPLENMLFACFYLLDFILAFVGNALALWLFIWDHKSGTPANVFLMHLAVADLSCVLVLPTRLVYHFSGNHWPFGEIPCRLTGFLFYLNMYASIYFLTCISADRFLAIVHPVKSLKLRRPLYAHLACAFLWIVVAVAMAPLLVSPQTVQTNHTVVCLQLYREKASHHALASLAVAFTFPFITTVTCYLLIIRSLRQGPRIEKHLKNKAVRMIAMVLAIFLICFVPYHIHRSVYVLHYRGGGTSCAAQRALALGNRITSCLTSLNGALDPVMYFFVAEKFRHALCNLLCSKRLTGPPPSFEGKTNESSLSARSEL", "assay": "[35S]GTPγS binding in membranes of 1321N1 cells transfected with pcDNA3.1-Gpr17m", "assay_type": "biochemical", "settings": "for EC50: membranes of 1321N1 cells expressing mouse GPR17, mean±SEM of three experiments, read-out: EC50, stimulation of [35S]GTPγS binding", "description": "The pharmacological profile of mGPR17 was then assessed. Since stimulation of GPCRs results in increased binding of GTP to G proteins (which can, in turn, be quantified by measuring [^35S]GTPγS binding to purified membranes; see [13]), GPR17 activation in the heterologous system was determined by testing the increase of [^35S]GTPγS binding by exogenously-added agonists in membranes from transfected cells, [14], [15]. […] The ability of some known purinergic and cysLT antagonists to counteract agonist-induced GTPγS binding stimulation in cells expressing mGPR17 was also assessed.\nFigure 1 Effect of purinergic and leukotriene ligands on mGPR17 with [^35S]GTPγS binding. Membrane aliquots (10 µg), obtained from 1321N1 cells transfected with pcDNA3.1-Gpr17m (A,B), were incubated with the indicated concentrations of purinergic (A) or leukotriene (B) agonists. […] (D) Effect of P2Y or CysLT receptor antagonist on agonist-stimulated [^35S]GTPγS binding. […] All data are expressed as percentage of basal [^35S]GTPγS binding (set to 100%) and represent the mean±SEM of three different experiments each performed in duplicate.\nHuman astrocytoma cells 1321N1 cells were cultured as described. For [^35S]GTPγS, 10^6 1321N1 cells were seeded on 75 cm^2 flasks and transfected by the calcium phosphate precipitation method.\nControl and transfected 1321N1 cells were homogenized in 5 mM TRIS-HCl, 2 mM EDTA, pH 7.4 and centrifuged at 48000 g for 15 min at 4°C. The resulting plasma membranes were suspended in binding buffer and used in [^35S]GTPγS binding assay as previously described.\nFor [^35S]GTPγS binding data analysis and graphic presentation, a non-linear multipurpose curve-fitting program Graph-Pad Prism was used and the EC50 values were derived. Data are reported as mean±SEM of three different experiments (performed in duplicate)."}, "[1]": {"system": "GPR17+ oligodendrocyte precursors in primary cortical cultures", "assay": "Oligodendrocyte precursor maturation in primary mixed neuronal/glial cortical cultures (immunostaining, cell counts)", "assay_type": "cell-based, rat", "settings": "72 h", "source_text": "Figure 4 Presence and activation of GPR17 in oligodendrocyte precursor cells of primary cortical cultures maintained in vitro. […] Micrographs (A–H) show their phenotype characterization. […] Colocalization of GPR17 with these markers is shown in yellow-orange cells. […] In blue, Hoechst 33258 stained nuclei. Single cell RT-PCR was used to confirm expression of GPR17 in oligodendroglial-like cells (I). For this analysis, cells were picked up from living cultures using cell morphology as a guide at the light microscope. Left micrograph: an example of a brightfield showing cells (arrows) with oligodendrocyte morphology. These cells can be distinguished from neurons based on their size (approximately 1/3 the size of neurons), phase-dark cell bodies and presence of fine ramifications. The oligodendrocyte nature of cells with this morphology was confirmed by co-immunostaining for O4 and GPR17 at a subsequent time after culture fixing (arrows in right micrograph). By following this method, one living cell or a small number of cells (up to 10) were sucked from living cultures (see MATERIALS AND METHODS) and processed for RT-PCR analysis. […] Rat cortex was utilized as a positive control (see last lane). Scale bars: 15 µm. […] (K) Quantification of the percentage of GPR17^+ cells that also co-express the indicated oligodendrocyte markers. Total number (n) of GPR17^+ cells counted from two different coverslips for each preparation: for NG2, n = 3502; for O4, n = 2685; for CNPase, n = 1738; for MBP, n = 3615. Data were obtained from five different primary culture preparations.\nPrimary mixed neuronal/glial cultures from cerebral cortex were obtained from E18 Sprague-Dawley rats according to standard procedures [34]. Pregnant animals were euthanized by cervical dislocation under CO2 anesthesia, and the fetuses removed and put into ice-cold Hanks balanced salt solution. […]"}, "GPR17": {"target": "T2, GPR17 (Mus musculus, UniProt Q6NS65)", "T2 construct": "from tissue; host or cells: brain of living male CD1 mice after permanent MCAo", "T2 sequence (Q6NS65 whole entry)": "as above", "assay": "Permanent MCAo focal cerebral ischemia, brain infarct size by MRI", "assay_type": "in vivo", "procedure": "To address this issue, 6 mice received an anti-sense oligonucleotide (616) specifically designed to knock down this receptor in vivo. Animals were injected intracerebroventricularly 20 min and 24 h after MCAo. […] Another group of 6 animals received in parallel a “scrambled” oligonucleotide randomly generated on the basis of the nucleotide sequence of 616. This group of animals was utilized as a control group in this set of experiments. […] The evolution of ischemic damage was followed longitudinally in living animals by Magnetic Resonance Imaging (MRI) at 2, 24 and 48 h after MCAo.\nImages were taken from the same animals at 2, 24 and 48 h after MCAo. […] (B) Quantitative analysis of infarct size volume at 24 and 48 hours after MCAo in mice receiving Scr, 616 or Can (mean of 6 animals/group). Data are expressed as percentage variation of infarct volume at 24 and 48 h after MCAo compared to 2 h considered as 100% (see also MATERIALS AND METHODS).\nMale CD1 mice (Charles River, Calco, Italy) weighing 20–25 g, after intraperitoneally anesthetized with ketamine (0.1 mg/kg) and xylazine (0.02 mg/kg), underwent permanent MCAo, as previously described [35]. […]"}, "[2]": {"settings": "UDP-glucose 100 µM, LTD4 100 nM"}},
  "data": [
    {"compound": "CSCCNc1nc(SCCC(F)(F)F)nc2c1ncn2[C@@H]1O[C@H](COP(=O)(O)OP(=O)(O)C(Cl)(Cl)P(=O)(O)O)[C@@H](O)[C@H]1O", "note": "[Cangrelor]", "values": [
      {"measurement": "IC50", "setting": "mGPR17; membranes of 1321N1 cells expressing mGPR17, 10 min pre-incubation, 500 nM UDP, read-out: IC50, inhibition of GTPγS binding stimulated by UDP", "value": "1.2 ± 0.3", "unit": "nM"},
      {"measurement": "effect on UDP-glucose-induced increase of GPR17+ and MBP+ cells", "setting": "[1]; 10 µM antagonist with 100 µM UDP-glucose", "value": "partially counteracted"},
      {"measurement": "progression of ischemic damage (brain infarct volume) at 24 and 48 h vs 2 h", "setting": "GPR17; cangrelor 1.125 µg/animal i.c.v. 20 min after MCAo, oligonucleotides 10 µg/animal i.c.v. 20 min and 24 h after MCAo", "value": "totally abolished"},
      {"measurement": "ischemic infarct volume at 2 h after MCAo", "setting": "GPR17; i.c.v. treatment 20 min after MCAo, 6 animals/group, no significant differences between groups", "value": "16.4±4.23", "unit": "mm^3"}
    ]},
    {"compound": "CCCCC/C=C\\C\\C=C/C=C/C=C/[C@@H](SC[C@H](NC(=O)CC[C@H](N)C(=O)O)C(=O)NCC(=O)O)[C@@H](O)CCCC(=O)O", "note": "[LTC4]", "values": [
      {"measurement": "EC50", "setting": "mGPR17", "value": "0.74 ± 0.2", "unit": "nM"}
    ]},
    {"compound": "CCCCC/C=C\\C\\C=C/C=C/C=C/[C@@H](SC[C@H](N)C(=O)NCC(=O)O)[C@@H](O)CCCC(=O)O", "note": "[LTD4]", "values": [
      {"measurement": "EC50", "setting": "mGPR17", "value": "0.63 ± 0.1", "unit": "nM"},
      {"measurement": "number of GPR17+ precursor cells", "setting": "[1]; [2]", "value": "significantly increased"},
      {"measurement": "number of mature MBP+ oligodendroglial cells", "setting": "[1]; [2]", "value": "significantly increased"}
    ]},
    {"compound": "CCCCC/C=C\\C\\C=C/C=C/C=C/[C@@H](SC[C@H](N)C(=O)O)[C@@H](O)CCCC(=O)O", "note": "[LTE4]", "values": [
      {"measurement": "EC50", "setting": "mGPR17", "value": "0.31 ± 0.09", "unit": "nM"}
    ]},
    {"compound": "O=c1ccn([C@@H]2O[C@H](COP(=O)(O)OP(=O)(O)O)[C@@H](O)[C@H]2O)c(=O)[nH]1", "note": "[UDP]", "values": [
      {"measurement": "EC50", "setting": "mGPR17", "value": "55 ± 6.2", "unit": "nM"}
    ]}
  ]
}
